Experimental data taken from patent publication US20210244721A1, “SMALL MOLECULE ENTEROVIRUS INHIBITORS AND USES THEREOF” (priority 2020, published 2021).
pEC50: −log10 of the molar value. Like-named read-outs stand apart in the source and are kept apart here.

Key:
[1] = Cytotoxicity, neutral red method, RD cells; details: human, RD (rhabdomyosarcoma) cells
[2] = system: EV-D68 US/KY/14-18953 virus; test: CPE assay, EV-D68 US/KY/14-18953 in RD cells; assay type: cell-based, Enterovirus D68 (EV-D68); details: EV-D68 US/KY/14-18953, RD cells; for pEC50: CPE assay
EV-A71 US/AK/16-19516 = test: CPE assay, EV-A71 US/AK in RD cells; assay type: cell-based; details: Enterovirus A, EVA71
EV-A71 Tainan/4643/98 = test: CPE assay, EV-A71 Tainan in RD cells; assay type: cell-based; details: Enterovirus A, EVA71; EV-A71 Tainan, RD cells; read-out: EC50
CVB3 = test: CPE assay, CVB3 in Vero C1008 cells; assay type: cell-based, coxsackievirus B3 (CVB3); details: Enterovirus B; CVB3, Vero C1008 cells; read-out: EC50
RD cells = test: Cytotoxicity, neutral red method, RD cells; details: RD cells, neutral red method
[3] = Enterovirus D, EVD68, RD, read-out: EC50

In the case of `CN(C)CCNC(=O)c1cc(-c2c(F)cc(F)cc2F)nc2ccccc12` [Compound 6bc, N-[2-(dimethylamino)ethyl]-2-(2,4,6-trifluorophenyl)quinoline-4-carboxamide], the CC50 at 3 days [1] was 39.2 µM, the “SI = selectivity index (CC50/EC50)” value [2] was “SI50 = 10.9” and the pEC50 [2, 3] was 5.44.

With `CNCCCNC(=O)c1cc(-c2ccccc2)nc2ccccc12` [Compound 6ac, N-[3-(methylamino)propyl]-2-phenylquinoline-4-carboxamide] the CC50 at 3 days [1] was 93.6 µM, the “SI = selectivity index (CC50/EC50)” value [2] was “SI50 = 10.5” and the pEC50 [2, 3] was 5.05.

`CC1(CNC(=O)c2cc(-c3ccccc3)nc3ccccc23)CNC1` [Compound 6al, N-[(3-methylazetidin-3-yl)methyl]-2-phenylquinoline-4-carboxamide] gave a CC50 at 3 days [1] of 49.5 µM and a pEC50 [2, 3] of 5.16.

`CN1CCC(NC(=O)c2cc(-c3cccs3)nc3ccccc23)C1` (stereo not shown) [drawing 191] showed a pEC50 (EV-A71 US/AK/16-19516) of 5.10, a pEC50 (EV-A71 Tainan/4643/98) of 5.20 and a pEC50 (CVB3) of 6.70.

With `O=C(NC1CNC1)c1cc(-c2ccccc2)nc2ccccc12` [Compound 6aj, N-(azetidin-3-yl)-2-phenylquinoline-4-carboxamide] the CC50 at 3 days [1] was 36.6 µM and the pEC50 [2, 3] was 5.38.

With `O=C(NCCC1CCCN1)c1cc(-c2ccccc2)nc2ccccc12` (stereo not shown) [Compound 6ai, 2-phenyl-N-[2-(pyrrolidin-2-yl)ethyl]quinoline-4-carboxamide] the CC50 at 3 days [1] was 19.1 µM and the pEC50 [2, 3] was 5.22.

Work on `O=C(NCC1(O)CNC1)c1cc(-c2ccccc2)nc2ccccc12` [Compound 6ah, N-[(3-hydroxyazetidin-3-yl)methyl]-2-phenylquinoline-4-carboxamide] yielded a CC50 at 3 days [1] of 82.2 µM and a pEC50 [2, 3] of 5.29.

In the case of `O=C(NC1CNC1)c1cc(-c2ccco2)nc2ccccc12` [Compound 6bq, N-(azetidin-3-yl) 2-(furan-2-yl)quinoline-4-carboxamide], the CC50 at 3 days [1] was 161 µM, the “SI = selectivity index (CC50/EC50)” value [2] was “SI50 = 14.5” and the pEC50 [2, 3] was 4.95.

With `NCCNC(=O)c1cc(-c2ccccc2)nc2ccccc12` [Compound 6an, N-(2-aminoethyl)-2-phenylquinoline-4-carboxamide] the CC50 at 3 days [1] was 44.9 µM, the “SI = selectivity index (CC50/EC50)” value [2] was “SI50 = 37.4” and the pEC50 [2, 3] was 5.92.

In the case of `NCCNC(=O)c1cc(-c2ccco2)nc2c(Cl)cccc12` [Compound 6bs, N-(2-aminoethyl)-8-chloro-2-(furan-2-yl)quinoline-4-carboxamide], the CC50 at 3 days [1] was 50.5 µM, the “SI = selectivity index (CC50/EC50)” value [2] was “SI50 = 50.5” and the pEC50 [2, 3] was 6.00.

For `O=C(NCC1CNC1)c1cc(-c2ccco2)nc2ccccc12` [Compound 6br, N-[(azetidin-3-yl)methyl]-2-(furan-2-yl)quinoline-4-carboxamide], the CC50 at 3 days [1] was 170 µM, the “SI = selectivity index (CC50/EC50)” value [2] was “SI50 = 14.8” and the pEC50 [2, 3] was 4.94.

For `CC(CN(C)C)NC(=O)c1cc(-c2cccs2)nc2ccccc12` (stereo not shown) [drawing 190], the pEC50 (EV-A71 US/AK/16-19516) was 5.06, the pEC50 (EV-A71 Tainan/4643/98) was 5.10 and the pEC50 (CVB3) was 6.40.

In the case of `CC(CN(C)C)NC(=O)c1cc(-c2ccccc2)nc2ccccc12` (stereo not shown) [drawing 183], the pEC50 (EV-A71 US/AK/16-19516) was 4.93, the pEC50 (EV-A71 Tainan/4643/98) was 4.74 and the pEC50 (CVB3) was 5.70.

With `NCCCNC(=O)c1cc(-c2ccccc2)nc2ccccc12` [Compound 6ad, N-(3-aminopropyl)-2-phenylquinoline-4-carboxamide] the CC50 at 3 days [1] was 168 µM, the “SI = selectivity index (CC50/EC50)” value [2] was “SI50 = 23.4” and the pEC50 [2, 3] was 5.14.

In the case of `O=C(NCC1CNC1)c1cc(-c2ccc(F)cc2)nc2ccccc12` [Compound 6az, N-[(azetidin-3-yl)methyl]-2-(4-fluorophenyl)quinoline-4-carboxamide], the CC50 at 3 days [1] was 50.6 µM, the “SI = selectivity index (CC50/EC50)” value [2] was “SI50 = 42.2” and the pEC50 [2, 3] was 5.92.

With `CN(C)CCNC(=O)c1cc(-c2c(F)c(F)c(F)c(F)c2F)nc2ccccc12` [Compound 6be, N-[2-(dimethylamino)ethyl]-2-(2,3,4,5,6-pentafluorophenyl)quinoline-4-carboxamide] the CC50 at 3 days [1] was 148 µM, the “SI = selectivity index (CC50/EC50)” value [2] was “SI50 = 13.7” and the pEC50 [2, 3] was 4.97.

For `CN1CC(NC(=O)c2cc(-c3cccs3)nc3ccccc23)C1` [Compound 6bh, N-(1-methylazetidin-3-yl)-2-(thiophen-2-yl)quinoline-4-carboxamide], the CC50 at 3 days [1] was 42.6 µM, the “SI = selectivity index (CC50/EC50)” value [2] was “SI50 = 42.6” and the pEC50 [2, 3] was 6.00.

For `O=C(NCC1CCCNC1)c1cc(-c2ccccc2)nc2ccccc12` (stereo not shown) [Compound 6am], the CC50 at 3 days [1] was 30.1 µM, the “SI = selectivity index (CC50/EC50)” value [2] was “SI50 = 4.2” and the pEC50 [2, 3] was 5.15.

Molecule `CNCCNC(=O)c1cc(-c2ccc(F)cc2)nc2ccccc12` [drawing 186] has a pEC50 (EV-A71 Tainan/4643/98) of 5.51, a pEC50 (CVB3) of 6.70 and a pEC50 [2] of 6.70.

`CN(C)CCOC(=O)c1cc(-c2ccccc2)nc2ccccc12` [Compound 6ab, 2-(dimethylamino)ethyl 2-phenylquinoline-4-carboxylate] showed a CC50 at 3 days [1] of 78.9 µM and a pEC50 [2, 3] of less than 4.30.

In the case of `CN(C)CCNC(=O)c1cc(-c2c(F)cccc2F)nc2ccccc12` [Compound 6bb, 2-(2,6-difluorophenyl)-N-[2-(dimethylamino)ethyl]quinoline-4-carboxamide], the CC50 at 3 days [1] was 93 µM, the “SI = selectivity index (CC50/EC50)” value [2] was “SI50 = 7.7” and the pEC50 [2, 3] was 4.92.

With `O=C(NCC1CNC1)c1cc(-c2cccs2)nc2ccccc12` [Compound 6bn, N-[(azetidin-3-yl)methyl]-2-(thiophen-2-yl)quinoline-4-carboxamide] the CC50 at 3 days [1] was 28.3 µM, the “SI = selectivity index (CC50/EC50)” value [2] was “SI50 = 23.6” and the pEC50 [2, 3] was 5.92.

For `O=C(NC1CNC1)c1cc(-c2ccc(F)cc2)nc2ccccc12` [Compound 6ay, N-(azetidin-3-yl)-2-(4-fluorophenyl)quinoline-4-carboxamide], the CC50 at 3 days [1] was 46.7 µM, the “SI = selectivity index (CC50/EC50)” value [2] was “SI50 = 42.5” and the pEC50 [2, 3] was 5.96.

With `[2H]c1c([2H])c([2H])c(-c2cc(C(=O)NCC3CNC3)c3ccccc3n2)c([2H])c1[2H]` [Compound 6au, N-[(azetidin-3-yl)methyl]-2 [(2,3,4,5,6-^2H5)phenyl]quinoline-4-carboxamide] the CC50 at 3 days [1] was 188 µM, the “SI = selectivity index (CC50/EC50)” value [2] was “SI50 = 29.5” and the pEC50 [2, 3] was 5.19.

For `N=C(N)NCCNC(=O)c1cc(-c2ccccc2)nc2ccccc12` [Compound 6ao, N-(2-carbamimidamidoethyl)-2-phenylquinoline-4-carboxamide], the CC50 at 3 days [1] was greater than 200 µM, the “SI = selectivity index (CC50/EC50)” value [2] was “SI50 >60.6” and the pEC50 [2, 3] was 5.48.

With `CN1CC(NC(=O)c2cc(-c3ccccc3)nc3ccccc23)C1` [Compound 6ak, N-(1-methylazetidin-3-yl)-2-phenylquinoline-4-carboxamide] the CC50 at 3 days [1] was 46.8 µM and the pEC50 [2, 3] was 5.54.

With `NCCNC(=O)c1cc(-c2ccco2)nc2ccccc12` [Compound 6bp, N-(2-aminoethyl)-2-(furan-2-yl)quinoline-4-carboxamide] the CC50 at 3 days [1] was 147 µM, the “SI = selectivity index (CC50/EC50)” value [2] was “SI50 = 33.4” and the pEC50 [2, 3] was 5.36.

In the case of `CC(CN)NC(=O)c1cc(-c2ccccc2)nc2ccccc12` (stereo not shown) [Compound 6ap, N-(1-aminopropan-2-yl)-2-phenylquinoline-4-carboxamide], the CC50 at 3 days [1] was 89.1 µM, the “SI = selectivity index (CC50/EC50)” value [2] was “SI50 = 74.3” and the pEC50 [2, 3] was 5.92.

`CN(C)CCNC(=O)c1cc(-c2ccc(F)cc2F)nc2ccccc12` [drawing 188] showed a pEC50 (EV-A71 US/AK/16-19516) of less than 5.00, a pEC50 (EV-A71 Tainan/4643/98) of 5.10 and a pEC50 (CVB3) of 6.40.

With `NNC(=O)c1cc(-c2ccccc2)nc2ccccc12` [Compound 10d, 2-phenylquinoline-4-carbohydrazide] the CC50 (RD cells) was greater than 300 µM and the “SI = selectivity index (CC50/EC50)” value [2] was greater than 3.

Work on `O=C(NCC1CNC1)c1cc(-c2ccccc2)nc2ccccc12` [Compound 6ag, N-[(azetidin-3-yl)methyl]-2-phenylquinoline-4-carboxamide] yielded a CC50 at 3 days [1] of 43.2 µM and a pEC50 [2, 3] of 5.24.

With `CN(C)CCNC(=O)c1cc(-c2cccs2)nc2ccccc12` [drawing 189] the pEC50 (EV-A71 US/AK/16-19516) was less than 5.00, the pEC50 (EV-A71 Tainan/4643/98) was 5.54 and the pEC50 (CVB3) was 7.15. The pEC50 [2] was 7.40.

With `[2H]c1c([2H])c([2H])c(-c2cc(C(=O)NCCN)c3ccccc3n2)c([2H])c1[2H]` [Compound 6at, N-(2-aminoethyl)-2 [(2,3,4,5,6-^2H5)phenyl]quinoline-4-carboxamide] the CC50 at 3 days [1] was 100 µM, the “SI = selectivity index (CC50/EC50)” value [2] was “SI50 = 45.6” and the pEC50 [2, 3] was 5.66.

Molecule `NCCNC(=O)c1cc(-c2cccs2)nc2ccccc12` [drawing 193] has a pEC50 (EV-A71 US/AK/16-19516) of less than 4.52, a pEC50 (EV-A71 Tainan/4643/98) of 4.42 and a pEC50 (CVB3) of 6.22.

For `[2H]c1c([2H])c([2H])c(-c2cc(C(=O)NCCNC)c3ccccc3n2)c([2H])c1[2H]` [Compound 6as, N-[2-(methylamino)ethyl]-2 [(2,3,4,5,6-^2H5)phenyl]quinoline-4-carboxamide], the CC50 at 3 days [1] was 101 µM, the “SI = selectivity index (CC50/EC50)” value [2] was “SI50 = 91.6” and the pEC50 [2, 3] was 5.96.

Work on `CNCCNC(=O)c1cc(-c2ccccc2)nc2ccccc12` [drawing 182] yielded a pEC50 (EV-A71 US/AK/16-19516) of less than 5.00, a pEC50 (EV-A71 Tainan/4643/98) of 5.11 and a pEC50 (CVB3) of 5.96.

`CN(C)CCNC(=O)c1cc(-c2ccco2)nc2ccccc12` [drawing 194] gave a pEC50 (EV-A71 US/AK/16-19516) of 4.68, a pEC50 (EV-A71 Tainan/4643/98) of 4.51 and a pEC50 (CVB3) of 5.92.

With `CC(CN)NC(=O)c1cc(-c2cccs2)nc2ccccc12` (stereo not shown) [Compound 6bm, N-(1-aminopropan-2-yl)-2-(thiophen-2-yl)quinoline-4-carboxamide] the CC50 at 3 days [1] was 23.8 µM, the “SI = selectivity index (CC50/EC50)” value [2] was “SI50 = 47.6” and the pEC50 [2, 3] was 6.30.

For `CN(C)CCNC(=O)c1cc(-c2cc(F)c(F)c(F)c2)nc2ccccc12` [Compound 6bd, N-[2-(dimethylamino)ethyl]-2-(3,4,5-trifluorophenyl)quinoline-4-carboxamide], the CC50 at 3 days [1] was 38 µM and the pEC50 [2, 3] was less than 3.52.
